Data: article PMC12880750, “Mechanistic insights and in vivo HIV suppression by the BRD4-targeting small molecule ZL0580” (PLOS Pathogens, 2026)

Test: Body weight / tolerability in HIV-infected Hu-mice
Type: in vivo, CD34+ Hu-NSG mice (Hu-mice)
Excerpt: To assess general health of the mice and potential protective effects of the treatments, body weights of Hu-mice were closely monitored. […] There was a slight reduction in body weights of Hu-mice in the EV group following HIV infection. However, no statistically significant difference was detected as compared to the three treatment groups (Fig 6E).
Mice were 16-week-old at the initiation of the experiments. All mice received human CD34 + stem cells of a single donor and human immune cell reconstitution was confirmed for all mice. A total of 12 Hu-mice were initially included in the study with each tagged and assigned with a unique ID. At week 0, all Hu-mice were intravenously (IV) infected with HIV-1 JR-CSF at a single dose of 10ng HIV p24 equivalent virus per animal. Blood/plasma viral loads were monitored and quantified weekly by a single-step RT-qPCR until systemic HIV infection was established. […] At week 3, the remaining 11 Hu-mice were randomized into four groups for subsequent treatments: Empty Vehicle (EV) (n = 2), ART (n = 3), ZL0580 (n = 3), and ART + ZL0580 (n = 3). […] Plasma samples were collected from mice either weekly or biweekly for quantification of viral loads (RNA copies). Blood cells were also collected at weeks 7 and 13 for quantification of cell-associated HIV DNA in blood. Mouse weights were monitored after treatment.

**Q.** With `O=C(Nc1ccc(C(F)(F)F)cc1)Nc1ccc(S(=O)(=O)N2CCC[C@H]2C(=O)Nc2ccccc2)cc1` [ZL0580] as the compound, how does the “Tolerability in Hu-mice” value (daily intraperitoneal administration over the course of treatment) read?
**A.** well tolerated

**Q.** What about the “Body weights of Hu-mice” value (daily intraperitoneal administration, throughout the study) of the same compound?
**A.** maintained stable body weights
